Here are results for 91 compounds from a melting point compilation (Tetko et al.; mined from patent text by program, amines drawn as free bases though some values may be those of a salt).

Molecules are shown by their SMILES. Where only a bound is given, the exact number is not on record here.

Compound `O=C1NC(=O)C(S(=O)(=O)c2ccc3ccccc3n2)S1` (stereo unspecified) had a melting point of 168 to 169 °C.

Consider `CCCC(NS(=O)(=O)NC(=O)OCc1ccccc1)C(=O)OC` (stereo unspecified), for which the melting point lay in the range of 76 to 78 °C.

The compound `N#Cc1ccc(OCc2ccncc2)cc1F` came in with a melting point of 132 to 133 °C.

Compound `O=Cc1ccc(-c2ccnc(-c3ccc(OC(F)(F)F)cc3)n2)cc1` displayed a melting point of 70 to 73 °C.

Consider `CCN(CC)CCNc1nc(N2CCCC2)nc2ccccc12`, for which the melting point is 87 to 90 °C.

In turn, `CC(C)S(=O)(=O)NCC(C)(F)c1ccc(-c2ccc(CC#N)cc2)cc1` (stereo unspecified) showed a melting point of 155 to 157 °C.

With `CCOC(=O)c1ncn2c1nc(N1CCOCC1)c1ccccc12`, the melting point worked out at 165 °C.

In the case of `N#Cc1c(Cl)c(C(F)(F)F)n(CCl)c1-c1ccc(Cl)cc1`, the melting point lay within 107 to 108 °C.

For the compound `CCOc1c(C=O)sc(NC(C)=O)c1C#N`, the melting point lay in the range of 276 to 277 °C.

Regarding `CCOC(=O)c1nc(-c2ccc(OC)cc2)sc1C`, the melting point was 65 to 66 °C.

Consider `Cc1nccc(N2CCC(CN3CCN(C(=O)c4ccc(F)cc4)CC3)CC2)n1`, for which the melting point fell in the range of 127 to 128 °C.

`Nc1c(F)c(N2CCNCC2)cc2c1c(=O)c(C(=O)O)cn2C1CC1` had a melting point of 214 to 216 °C.

Compound `CCCCCCCC(=O)c1cn(CCCC(=O)O)c2ccccc12` had a melting point of 100 to 102 °C.

As for `Cc1cn(C)c(C(=O)NS(=O)(=O)c2ccccc2Cl)n1`, the melting point was 230 to 231 °C.

`COC(=O)c1cc(=O)c2c(C)cc(Br)cc2[nH]1`: the melting point was in the range of 258 to 259 °C.

As for `COC(=O)[C@H](Cc1cccc2ccccc12)NC(=O)[C@H](CC(=O)OC(C)(C)C)NC(=O)c1cccc(N)c1`, the melting point was 70 to 72 °C.

As to `O=C(c1c[nH]c2ccc(Br)cc12)C(F)(F)F`, the melting point turned out to be 254 °C.

`O=C(NCCN(CCNC(=O)OCCO)c1nc(Cl)nc(N(CCNC(=O)OCCO)CCNC(=O)OCCO)n1)OCCO` registered a melting point of 174 °C.

Turning to `CCOC(=O)CNc1ccc(C2=NNC(=O)NC2C)cc1` (stereo unspecified), the melting point was in the range of 180 to 182 °C.

Consider `N#Cc1cnc2c(oc3ccccc32)c1Cl`, for which the melting point is 229 to 231 °C.

The compound `N#Cc1c(N2CCN(C(=O)c3ccco3)CC2)c2cc(F)ccc2n(Cc2ccc(F)cc2)c1=O` had a melting point of 248 °C.

Regarding `O=c1n(CCO)c2ccccc2n1CCO`, the melting point lay in the range of 145 to 158 °C.

Compound `COCc1cnc2c(N)cccc2c1Cl` returned a melting point of 107 °C.

In the case of `COC(=O)c1c[nH]c(-c2ccc(OC[C@@H](O)CNC(C)(C)C)cc2)n1`, the melting point fell in the range of 168 to 172 °C.

For `CC#CCOc1ccc(S(=O)C(C(=O)NO)c2ccc(Cl)cc2)cc1` (stereo unspecified), the melting point came to 92 °C.

In the case of `Brc1cc(-c2ccncc2)cnc1Br`, the melting point fell in the range of 150 to 155 °C.

Consider `O=Cc1cccnc1SCc1ccccc1`, for which the melting point lay within 71.5 to 73 °C.

In turn, `COc1ccc2c(c1)C(=O)N(c1ccc3ccoc3c1)C2` gave a melting point of 141 to 143 °C.

Regarding `C[C@]1(COC(=O)N2CCC(Nc3ccc(C(F)(F)F)cc3)CC2)Cn2cc([N+](=O)[O-])nc2O1`, the melting point lay within 137 to 140 °C.

With `O=C(O)CCc1cc2nc(Cl)ccc2n1S(=O)(=O)c1ccc2c(c1)CCN2`, the melting point was 79 °C.

In turn, `C=CC(=O)Nc1n[nH]c2cc(Cl)ccc12` gave a melting point of 205 °C.

Turning to `Nc1ncc(-c2ccc(F)cc2)nc1C(=O)Nc1cccnc1`, the melting point lay in the range of 193 to 197 °C.

The compound `CCCCCCCCCCCCCC(=O)NN` yielded a melting point of 107 to 111 °C.

Consider `COC(=O)CCc1ccc(-n2ncn(-c3ccc(C(=N)NC(=O)OC)cc3)c2=O)cc1`, for which the melting point is 296 to 298 °C.

In turn, `NC(=O)c1cnn(-c2ccc(Cl)cc2Cl)c1C(F)(F)F` displayed a melting point of 191 to 193 °C.

The compound `CCOC(=O)c1ccc(/C=C(\C)c2ccc3c(c2)C(C)(C)CCCC3)cc1` registered a melting point of 69 to 70 °C.

Consider `O=C(Nc1ccc(Cl)c(Cl)c1)OCCCC(O)c1ccccc1` (stereo unspecified), for which the melting point fell in the range of 86 to 89 °C.

`O=C(Nc1ccc(F)cc1)c1ccc(OC(F)(F)F)c(Nc2cccc(C(F)(F)F)c2)c1` registered a melting point of 143 to 144 °C.

The compound `O=C(O)c1ccccc1NCc1ccncc1` showed a melting point of 208 °C.

For the compound `COC(=O)C(Oc1nc(C)cc(OC)n1)C(OCC(C)(C)C(=O)OC)(c1ccccc1)c1ccccc1` (stereo unspecified), the melting point was 143 °C.

`O=C(O)/C=C/c1cccc(OS(=O)(=O)C(F)(F)F)c1`: the melting point amounted to 107 °C.

On to `CN1CCN(C2CC3(C)C(CCC4C3CCC3(C)C(O)C(N5CCCCC5)CC43)CC2O)CC1` (stereo unspecified), for which the melting point was 230 to 234 °C.

In turn, `Cc1nc2c(OCc3c(Cl)ccc(S(=O)(=O)N4CCC[C@H]4C(=O)NCCCNC(=O)c4ccc(C(N)=NO)cc4)c3Cl)cccn2c1Cl` showed a melting point of 155 °C.

As for `NS(=O)(=O)c1cc2c(Cl)c(N3CCOCC3)ccc2s1`, the melting point was 195 to 199 °C.

Consider `O=C(Nc1ccc(CNc2nc(NC3CC3)nc3ccccc23)cc1)c1ccc(F)cc1`, for which the melting point turned out to be 189 °C.

Regarding `COc1ccc(CC(NC(=O)c2ccccc2)c2cccnc2)cc1OC` (stereo unspecified), the melting point was 156 to 158 °C.

`Cc1ccnc2c1C(=O)c1c(C)cc(=O)[nH]c1C2=O` had a melting point of 258 to 261 °C.

Consider `O=C1CC(c2cccc(-n3ccnc3)c2)=Nc2ccc(-c3ccccc3F)cc2N1`, for which the melting point fell in the range of 179 to 182 °C.

Consider `CCn1ccc(=O)c2cnc(-c3ccc(O)cc3)nc21`, for which the melting point was in the range of 320 to 324 °C.

Regarding `CCc1cc2cc(O)ccc2c(Oc2ccc(/C=C/C(=O)O)cc2)c1-c1ccccc1`, the melting point fell in the range of 188 to 190 °C.

The compound `COc1ccc(C(=O)c2ccc(OCc3ccccc3)nc2)c(OC(C)(C)C(=O)OC(C)(C)C)c1` yielded a melting point of 58 to 60 °C.

`O=P1(c2ccccc2)OCC2(CO1)COP(=O)(c1ccccc1)OC2` (stereo unspecified) gave a melting point of 264 to 265 °C.

For the compound `CO/C(=C\C=C\c1cc2ccccc2[nH]1)C(=O)O`, the melting point fell in the range of 189 to 190 °C.

As to `CCOc1ccc2[nH]ccc2c1`, the melting point was in the range of 144 to 146 °C.

On to `Cc1ccc2[nH]c(C(=O)OC(C)C)c(Sc3ccc(Cl)cc3)c2c1`, for which the melting point is 172 to 174 °C.

The compound `COC(=O)C1C(C(OC(=S)Oc2ccc(C)cc2)C(C)C)C1(C)C` (stereo unspecified) displayed a melting point of 92 to 93 °C.

`CC(C)n1nc(-c2cnc(N)nc2-c2ccc(C(F)(F)F)cc2)ccc1=O` returned a melting point of 209 to 210 °C.

With `CCc1cc(Cl)c2c(=O)cc(C(=O)O)[nH]c2c1`, the melting point lay within 248 to 250 °C.

With `CS(=O)(=O)Nc1cccc([N+](=O)[O-])c1`, the melting point stood at 237 °C.

As to `CCn1c(COC(=O)NC(=O)C(C)(C)C)nc(C(C)C)c1Sc1cc(Cl)cc(Cl)c1`, the melting point is 157 to 159 °C.

For the compound `CC(=O)NNc1c(C)cnc2c(NC(=O)c3c(Cl)cccc3Cl)cccc12`, the melting point was 249 to 254 °C.

In turn, `CCCCCc1ccc(C(=O)NO)cc1` had a melting point of 89.9 to 90.1 °C.

`COc1ccc2c(c1)S(=O)(=O)N(C(OC(=O)c1sccc1Cl)C(C)C)C2=O` (stereo unspecified) yielded a melting point of 138 to 140 °C.

Regarding `CCOC(=O)CN1C(=O)C(N=[N+]=[N-])CCc2ccc(OC)cc21` (stereo unspecified), the melting point is 90 to 91 °C.

As for `Cc1ccc(C(O)C2OC2C(C)(C)C)cc1` (stereo unspecified), the melting point lay within 36 to 39 °C.

In the case of `COC(=O)C(C(=O)c1ccc(Cc2cn(C)c3ccc(NC(=O)OC4CCCC4)cc23)c(OC)c1)S(=O)(=O)c1ccccc1` (stereo unspecified), the melting point lay in the range of 65 to 70 °C.

Compound `CCCCCCCCCCCC(=O)N[C@H]1CCCNC(=O)C1` gave a melting point of 93 to 94 °C.

The compound `N#CC(C(=O)c1ccc(-c2nnn[nH]2)cc1)=C1CCCCN1` showed a melting point of more than 220 °C.

Consider `COC(=O)c1ccc(OC2=C3N=C4CCCCC4=C3C(Cc3ccc(OC)c(OC)c3)C=C2)o1` (stereo unspecified), for which the melting point is 100 to 101 °C.

Consider `CCCc1ncc(CCCCC(=O)O)s1`, for which the melting point amounted to 124 °C.

Take `CCCCc1nc2cccc(CC(=O)O)c2n1Cc1ccc(-c2ccccc2-c2nnn[nH]2)cc1`: the melting point was 170 to 171 °C.

For `Cc1cc(Cl)c(O)c(CN(C)C2CCCCCCC2)c1`, the melting point amounted to 101 °C.

The compound `COc1cc2nc(C(=O)O)c(=O)n(C)c2cc1OC` showed a melting point of 261 °C.

Turning to `CC(N=Cc1ccc(O)cc1)C1CCCCC1` (single isomer, unassigned; (+)), the melting point lay within 130 to 132 °C.

Turning to `CC(O)c1ccc(C2=CCCCC2)cc1` (stereo unspecified), the melting point is 60 to 62 °C.

For `CN1CCN(CCCn2cc(Br)c3c4c(c(-c5ccccc5Cl)cc32)C(=O)NC4=O)CC1`, the melting point was 150 to 152 °C.

With `Clc1ccc2c(c1)Nc1ncccc1N=C2c1ccccc1`, the melting point is 250 to 252 °C.

The compound `NCc1ccc2c(c1)N(C1CCN(CCc3ccc(F)cc3)CC1)CC2` yielded a melting point of 83 to 85 °C.

In turn, `CN1CCc2c(N3CCCC3)c(F)c(N)c3c(=O)c(C(=O)O)cn1c23` came in with a melting point of more than 290 °C.

As for `O=[N+]([O-])c1ccc2c(c1)Sc1cc(OC/C=C/I)ccc1N2`, the melting point is more than 250 °C.

`O=C(NS(=O)(=O)NC(=O)OCc1ccccc1)OCc1ccccc1` showed a melting point of 139 to 141 °C.

`N#Cc1c(Sc2ccccc2)cccc1[N+](=O)[O-]` registered a melting point of 106 to 107 °C.

Compound `O=C1CCC(C(=O)c2ccc(C3CCCCC3)cc2)N1` (stereo unspecified) showed a melting point of 200 °C.

In the case of `NC(=O)c1ncn2c(-c3cc(Cl)ccc3Cl)ccnc12`, the melting point lay in the range of 230 to 234 °C.

Compound `NC[C@H]1CCc2[nH]c3ccc(F)cc3c2C1` yielded a melting point of 121 to 123 °C.

Take `CCC[C@H]1CC[C@H](c2ccc(-c3ccccc3)c(F)c2)CC1`: the melting point lay within 96.5 to 97.3 °C.

On to `COc1cc(COc2nc(-c3ccccc3)ncc2C=O)ccc1OCc1nc(-c2ccco2)oc1C`, for which the melting point lay within 143 to 144 °C.

`CNS(=O)(=O)c1cc(C(=O)OC)cc(N2CCCC2)c1Oc1ccccc1` returned a melting point of 138 to 139 °C.

In turn, `COC1CCCC2=C(O)C3=C(C(=O)c4ccc(C(C)=O)cc4C3)C(O)C21` (stereo unspecified) came in with a melting point of 223 to 226 °C.

Compound `CCC(=O)N1CCC(C(=O)OC2c3ccccc3C(=O)N2c2ccc3ccc(Cl)nc3n2)CC1` (stereo unspecified) showed a melting point of 189 °C.

As for `CCOC(=O)c1nnc(S)n1Cc1ccc(OC)cc1`, the melting point lay in the range of 142 to 144 °C.

As usually defined, the melting point is the temperature, or range, at which the solid turns liquid.
